Measured values: patent publication US20060265776A1, “Viability” (priority 2003, published 2006)
“Also recorded” adds a separate entry of the source.

Key:
[1] = tested on: Arabidopsis thaliana cell suspension cultures; type: cell-based
Procedure: A. thaliana cell cultures were grown as described in example 1. Aliquots of the cell suspension (1.5 mL) were treated with a final concentration of 0, 20, 50, or 100 units/mL of apyrase. […] The dead cells had become buoyant and adhered to the walls of the vials, forming a ring just above the edge of the swirling medium. The ring of cells was sometimes dislodged and fell into the medium, resulting in apyrase-treated cultures having flakes of dead cells at the bottom of the vials.
To quantify the effect of apyrase on cell viability, the ability of the cells to grow and multiply subsequent to treatment was measured after diluting the cultures by over 30 times in fresh medium not containing any additives. This was achieved by transferring the cells treated for 3 days to 50 mL of fresh growth medium and allowing them to grow for a further 4 days. At the end of this period, triplicate 1 mL aliquots were sampled from the cultures and the volume of the cells was measured and expressed as a percentage of the culture volume. The method used to determine the packed cell volume was as follows: 1 mL cell culture aliquots were placed in 1.5 mL microfuge tubes and the cells gently compacted by centrifuging (1000 rpm., 10 minutes) in a swing-out rotor (Grundrotor 11030; Sigma laborzentrifugen GmbH, Oestrode, Germany). The level of the cells was marked on the wall of the tube and the volume of cells determined by measuring the volume of water needed to fill the tube to the marked level. The packed cell volume was expressed as the volume occupied by cells as a percentage of 1000 μL.
In each case the error bars represent the standard deviation.

[2] = tested on: Black Mexican sweet corn cells; test: Cell viability of corn suspension cells; type: cell-based, Zea mays; settings: 1 mM ATP, 1 mM AMP-PCP, 100 units/mL apyrase, 200 units/mL hexokinase; 100 mM glucose in culture
[3] = tested on: Tobacco (Nicotiana tabacum), Arabidopsis, and bean (Phaseolus vulgaris) plants; test: Leaf infiltration of extracellular ATP depletion systems, whole plants; type: in vivo; settings: 0.5 units/μL apyrase, 1.85 units/μL hexokinase plus 100 mM glucose, 1-5 mM AMP-PCP (pH 6.5); ATP (pH 6.5)
Procedure: (§1) Tobacco (Nicotiana tabacum), Arabidopsis, and bean (Phaseolus vulgaris) plants were sown in soil and raised in a growth cabinet with a 16-hour photoperiod at 20° C. and 8 hours of darkness at 15° C. The relative humidity was maintained at 60% and the photon flux density was 250 μmolm^−2 s^−1. […] Only the cotyledons of bean plants were treated. The abaxial surface of a small zone of leaf tissue was treated by infiltrating the apoplast with the solution using a syringe and hypodermic needle. The three test solutions had the following concentrations of either: 0.5 units/μL apyrase, 1.85 units/μL hexokinase plus 100 mM glucose, or 1-5 mM AMP-PCP (pH 6.5).
The concentrations used were the same as defined above unless stated otherwise.

tobacco leaves = test: Leaf infiltration, tobacco; type: in vivo, Nicotiana tabacum; settings: for local tissue death after infiltration of tobacco leaves: 1 mM AMP-PCP, 1 mM ATP, apyrase, hexokinase plus glucose; for state of tobacco plant after treatment of a leaf: 5 mM AMP-PCP or equivalent amount of ATP, after 4 days
Procedure: as §1

[4] = tested on: Arabidopsis cell suspension cultures; test: 2-D DIGE protein spot abundance, AMP-PCP treatment; type: cell-based; settings: 50 μM AMP-PCP vs water, 72 hours
tobacco plants = test: Foliar spray on soil-grown tobacco plants; settings: 5 mM in 0.02% Tween 20, 2 mL spray, three days after treatment
[5] = tested on: Arabidopsis cell cultures; test: MTT assay of cell viability after elicitor or bacteria with or without ATP; type: cell-based; settings: 1 mM ATP, 24 hours
[6] = tested on: Arabidopsis cell cultures; test: H2O2 accumulation after elicitor treatment; type: cell-based; settings: exogenous ATP with elicitor
Arabidopsis plants [7] = test: Foliar spray application, herbicidal activity; type: in vivo; settings: 2 mL spray, 5 mM active ingredient, 0.02% (v/v) Tween 20, pH 6.7
Procedure: The inventors tested a range of compounds for their potential herbicidal activity. These consisted of several nonhydrolysable ATP analogues as well as nonhydrolysable analogues of GTP, another nucleotide triphosphate. Arabidopsis plants were grown hydroponically for 2 weeks as described in Example 6B. These plants, still attached to the polyurethane foam discs, were then transferred to phytatrays that contained sand. Plants grown under high humidity conditions, achieved in these enclosed phytatrays, tend to have poor or no development of the waxy cuticle and so are ideal for spray application of solutions with the aid of common surfactants like Tween 20. The plants in each tray were sprayed with 2 mL of an aqueous solution adjusted to pH 6.7 with KOH and containing 5 mM active ingredient and 0.02% (v/v) Tween 20. Control plants were sprayed with the same solution containing only Tween 20 but no active ingredient.

Arabidopsis plants [8] = settings: cited from earlier work

Nc1ncnc2c1ncn2C1OC(COP(=O)(O)OP(=O)(O)CP(=O)(O)O)C(O)C1O (stereo not drawn) [AMP-PCP, β,γ-methyleneadenosine 5′-triphosphate]
cell viability with increasing concentration (dose-response), in words ([1]; apyrase 0-100 units/mL, hexokinase 0-200 units/mL with 100 mM glucose, AMP-PCP 0-1.5 mM): loss in cell viability | viability of corn cells [2]: caused significant cell death | necrotic lesions after local leaf infiltration [3]: development of necrotic lesions in the area where the application was made within 2 days of treatment; also recorded: localised necrotic lesions | local tissue death after infiltration of tobacco leaves (tobacco leaves): caused localised tissue death | state of tobacco plant after treatment of a leaf (tobacco leaves): not only had the treated leaf died (white arrowhead), but so too had portions of some upper, untreated leaves | Ratio, spot 613 H84453 Probable heat shock protein [imported] [4]: −1.26 | Ratio, spot 690 gi30693102 NADH dehydrogenase (ubiquinone), mitochondrial [4]: −1.44 | Ratio, spot 703 Luminal binding protein 1 precursor (BiP-1) [4]: 1.29 | Ratio, spot 707 Luminal binding protein 1 precursor (BiP-1) [4]: 1.45 | Ratio, spot 740 Heat shock cognate 70 kDa protein 2 (hsc70-2) [4]: −1.22 | Ratio, spot 778 gi1072473 dnaK-type molecular chaperone hsc70.1 [4]: 1.15 | Ratio, spot 795 gi15232682 Heat shock protein hsc70-3 [4]: 1.2 | Ratio, spot 906 gi15219234 ATPase 70 kDa subunit-related protein [4]: 1.19 | Ratio, spot 1063 gi30687521 Putative protein disulfide isomerase [4]: 1.24 | Ratio, spot 1069 gi15232827 Threonine ammonia lyase [4]: −1.23 | Ratio, spot 1074 gi11094242 Cytosolic phosphoglucose isomerase [4]: 1.2 | Ratio, spot 1098 gi288063 Ketol-acid reductoisomerase [4]: −1.12 | Ratio, spot 1135 gi9082270 Alanine aminotransferase [4]: 1.2 | Ratio, spot 1148 gi21593375 Unknown protein [4]: 1.24 | Ratio, spot 1155 gi30684419 Dihydrolipoamide dehydrogenase 2, mitochondrial [4]: 1.34 | Ratio, spot 1187 gi21954071 Putative alanine aminotransferase [4]: 1.41 | Ratio, spot 1196 gi14916970 ATP synthase alpha chain, mitochondrial [4]: 1.31 | Ratio, spot 1200 gi15241168 Tubulin alpha-3/alpha-5 chain (TUA3) [4]: 1.35 | Ratio, spot 1205 gi2493132 Vacuolar ATP synthase subunit B isoform 2 [4]: 1.24 | Ratio, spot 1229 H+-transporting ATP synthase beta chain [4]: 1.4 | Ratio, spot 1241 Enolase (2-phospho-D-glycerate hydrolase) [4]: 1.39 | Ratio, spot 1245 H+-transporting ATP synthase beta chain [4]: 1.23 | Ratio, spot 1254 gi15227559 Tubulin beta-7 chain [4]: −1.2 | Ratio, spot 1257 Enolase (2-phospho-D-glycerate hydrolase) [4]: 1.51 | Ratio, spot 1264 Enolase (2-phospho-D-glycerate hydrolase) [4]: 1.32 | Ratio, spot 1281 gi15234516 Putative thioredoxin [4]: 1.23 | Ratio, spot 1282 Adenosylhomocysteinase [4]: 1.46 | Ratio, spot 1292 Adenosylhomocysteinase [4]: 1.29 | Ratio, spot 1439 gi14594802 Translation initiation factor elf-4A1 [4]: 1.84 | Ratio, spot 1460 gi7485313 Hypothetical protein F10M10.120 [4]: −1.1 | Ratio, spot 1481 gi15234354 S-adenosylmethionine synthetase 2 [4]: −1.3 | Ratio, spot 1497 gi21536853 Putative phosphoglycerate kinase [4]: 1.47 | Ratio, spot 1516 Putative S-adenosylmethionine synthetase [4]: 1.22 | Ratio, spot 1649 gi21593388 12-oxophytodienoate reductase (OPR1) [4]: −1.22 | Ratio, spot 1718 gi15229530 Glutamine synthetase-related protein [4]: −1.13 | Ratio, spot 1748 gi21593240 GAPDH C subunit (GapC) [4]: 1.21 | Ratio, spot 1817 gi3435286 GAPDH C subunit (GapC) [4]: 1.13 | Ratio, spot 1868 gi15226185 Putative fructose-bisphosphate aldolase [4]: −1.35 | Ratio, spot 1892 gi14334740 Putative fructose-bisphosphate aldolase [4]: −1.71 | Ratio, spot 1920 gi15237888 Putative NADP-dependent oxidoreductase (P1) [4]: −1.45 | Ratio, spot 1943 gi25283601 Malate dehydrogenase [EC 1.1.1.37], chloroplast [4]: 1.22 | Ratio, spot 1959 Malate dehydrogenase [NAD], mitochondrial [4]: −1.11 | Ratio, spot 1964 gi15232468 Malate dehydrogenase [NAD], mitochondrial [4]: 1.21 | Ratio, spot 2221 gi21593226 Putative esterase D [4]: −1.24 | Ratio, spot 2282 gi15228883 Expressed protein [4]: −1.74 | Ratio, spot 2370 gi18390982 ATP-dependent Clp protease proteolytic subunit [4]: 1.38 | Ratio, spot 2422 gi20260140 Multicatalytic endopeptidase complex alpha subunit [4]: −1.21 | Ratio, spot 2443 L-ascorbate peroxidase 1, cytosolic (APX1) [4]: −2.51 | Ratio, spot 2552 L-ascorbate peroxidase 1, cytosolic (APX1) [4]: −1.47 | Ratio, spot 2562 gi15224582 Putative glutathione S-transferase [4]: 1.4 | Ratio, spot 2605 gi15239652 Putative quinone reductase [4]: 1.38 | Ratio, spot 2626 gi15228805 20S proteasome beta subunit D (PBD1) [4]: 1.14 | Ratio, spot 2690 gi20138157 Phospholipid hydroperoxide glutathione peroxidase [4]: 1.21 | Ratio, spot 2734 gi18412406 Expressed protein [4]: −1.93 | Ratio, spot 2832 gi30697295 Actin depolymerizing factor 3-like prptein [4]: −1.29 | Ratio, spot 2842 gi15218373 40S ribosomal protein S12 (RPS12A) [4]: −1.3 | state of tobacco plants (tobacco plants): started to die

Nc1ncnc2c1ncn2[C@@H]1O[C@H](COP(=O)(O)OP(=O)(O)OP(=O)(O)O)[C@@H](O)[C@H]1O [ATP]
cell viability / cell death, in words ([1]; ADP 1 mM, AMP 1 mM, ATP 1 mM, glucose-6-phosphate 100 mM, boiled apyrase 50 units/ml, boiled hexokinase 200 units/ml with 100 mM glucose): did not cause death of treated cells | viability of corn cells [2]: did not affect the viability of the cells | necrotic lesions after local leaf infiltration [3]: did not result in cell death | local tissue death after infiltration of tobacco leaves (tobacco leaves): did not | state of tobacco plant after treatment of a leaf (tobacco leaves): remained entirely healthy | effect of exogenous ATP on reduction in cell viability caused by Ps. syringae or Fusarium elicitor [5]: substantially negated | H2O2 accumulation [6]: failed to prevent H2O2 accumulation | Effects on Arabidopsis plants after foliar application (Arabidopsis plants [7]): remained healthy and None | resistance of plants to xenobiotics (Arabidopsis plants [8]; adding exogenous ATP): decreased the resistance of plants to xenobiotics | state of tobacco plants (tobacco plants): unaffected

Nc1ncnc2c1ncn2[C@@H]1O[C@H](COP(=O)(O)CP(=O)(O)O)[C@@H](O)[C@H]1O [α,β-methyladenosine 5′ diphosphate]
cycloheximide-resistance of plants over-expressing ecto-ATPase (Arabidopsis plants [8]; co-administered with cycloheximide): lost their cycloheximide-resistance
